This passage reports melting point and IC50 results from patent publication US7217730B2, “Method for the use of pyranoindole derivatives to treat infection with Hepatitis C virus” (Wyeth, priority 2002, dated 2007).

Data set [1] concerns the target T1, NS5B from the BK strain (genotype 1b) (Hepatitis C virus genotype 1b, UniProt P26663).
T1 construct: NS5B from the BK strain (genotype 1b) is expressed in E. coli as a protein in which the 21 C-terminal amino acids are replaced; made in house; host or cells: E. coli
In words: Hepatitis C polymerase inhibition, NS5B BK strain, 33P-GTP filter assay. The format is biochemical. The following applies: NS5B BK strain. The essentials:
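Radiolabelled RNA synthesis was measured by filter capture and scintillation counting after EDTA stop. His-tagged, C-terminally truncated (Δ21) genotype 1b BK NS5B from E. coli, pre-exposed to compound for 15 min, copied a self-primed RNA template (~3 nM) with α-[33P]-GTP for 2 h at room temperature.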

The target of data set [2] is BB7 (RNA-dependent RNA polymerase hepatitis C virus protein sequence derived from HCV replicon) (Hepatitis C virus genotype 1b, UniProt Q9WMX2). In words: Hepatitis C polymerase inhibition, BB7 sequence. The format is biochemical. The following applies: Table 1B.
BB7 (RNA-dependent RNA polymerase hepatitis C virus protein sequence derived from HCV replicon), sequence (Q9WMX2 2420-3010): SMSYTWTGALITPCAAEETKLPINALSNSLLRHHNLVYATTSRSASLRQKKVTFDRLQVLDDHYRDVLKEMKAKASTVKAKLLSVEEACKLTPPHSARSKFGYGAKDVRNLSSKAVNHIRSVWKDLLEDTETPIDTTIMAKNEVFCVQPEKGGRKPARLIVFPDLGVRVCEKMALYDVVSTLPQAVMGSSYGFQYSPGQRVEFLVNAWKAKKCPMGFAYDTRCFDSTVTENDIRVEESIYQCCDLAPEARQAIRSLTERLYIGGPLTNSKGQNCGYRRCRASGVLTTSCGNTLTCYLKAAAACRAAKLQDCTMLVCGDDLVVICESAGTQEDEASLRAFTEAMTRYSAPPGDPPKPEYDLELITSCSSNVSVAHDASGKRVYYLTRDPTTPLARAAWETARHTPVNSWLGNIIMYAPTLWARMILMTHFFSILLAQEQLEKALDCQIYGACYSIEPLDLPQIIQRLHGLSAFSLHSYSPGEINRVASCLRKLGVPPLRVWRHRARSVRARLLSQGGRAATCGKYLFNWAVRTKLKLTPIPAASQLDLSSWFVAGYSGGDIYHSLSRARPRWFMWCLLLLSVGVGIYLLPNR

Where two headings read alike, the source gives them in different places.

T1 sequence (P26663 2420-2989): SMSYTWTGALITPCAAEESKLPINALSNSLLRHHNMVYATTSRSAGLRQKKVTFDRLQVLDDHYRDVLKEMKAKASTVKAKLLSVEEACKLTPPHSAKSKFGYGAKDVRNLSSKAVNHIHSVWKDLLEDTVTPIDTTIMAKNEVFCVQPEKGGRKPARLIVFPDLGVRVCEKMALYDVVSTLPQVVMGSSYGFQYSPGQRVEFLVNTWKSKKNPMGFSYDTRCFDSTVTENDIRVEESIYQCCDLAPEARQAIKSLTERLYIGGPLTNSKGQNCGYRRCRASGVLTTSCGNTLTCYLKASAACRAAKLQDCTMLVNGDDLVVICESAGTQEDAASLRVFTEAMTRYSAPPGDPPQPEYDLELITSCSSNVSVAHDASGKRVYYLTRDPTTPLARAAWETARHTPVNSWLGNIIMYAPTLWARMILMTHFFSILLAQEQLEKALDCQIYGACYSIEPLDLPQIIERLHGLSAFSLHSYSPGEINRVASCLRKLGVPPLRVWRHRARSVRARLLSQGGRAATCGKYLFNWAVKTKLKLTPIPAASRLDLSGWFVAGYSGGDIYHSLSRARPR

Turning to `CCCC1(CC(=O)O)OCCc2c1[nH]c1c(F)ccc(C(=O)N3CCOCC3)c21` (stereo not drawn) [Example 225, [8-Fluoro-5-(morpholine-4-carbonyl)-1-propyl-1,3,4,9-tetrahydro-pyrano[3,4-b]indol-1-yl]-acetic Acid], the melting point – broadly, the temperature, or range, at which the solid turns liquid – is 98 to 100 °C. The IC50 (as a rule, the concentration that inhibits the measured activity by half) in data set [1] (Table 1A, read-out: HCV pol BK IC50) was more than 20000 nM.
For the compound `N#Cc1ccc(F)c2[nH]c3c(c12)CCOC3(C(=O)O)C1CCCCC1` (stereo not drawn) [Example 351, (5-cyano-1-cyclohexyl-8-fluoro-1,3,4,9-tetrahydropyrano[3,4-b]indol-1-yl)carboxylic acid], the IC50 in data set [1] (Table 1B, read-out: BK IC50) is more than 30000 nM; in data set [2], more than 30000 nM.
In the case of `CCCC1(CC(=O)O)OCCc2c1[nH]c1c(C)c(OC(C)C)cc(C#N)c21` (stereo not drawn) [Example 364, (5-cyano-7-isopropoxy-8-methyl-1-propyl-1,3,4,9-tetrahydro-pyrano[3,4-b]indol-1-yl)-acetic acid], the IC50 was 480 nM in data set [1] (Table 1B, read-out: BK IC50) and 220 nM in data set [2].
For `O=C(O)CC1(CCC(F)(F)F)OCCc2c1[nH]c1c(Cl)ccc(Cl)c21` (stereo not drawn) [Example 245, [5,8-dichloro-1-(3,3,3-trifluoropropyl)-1,3,4,9-tetrahydropyrano[3,4-b]indol-1-yl]acetic acid], in that order: 400 nM and 740 nM.
`Cc1ccc(C#N)c2c3c([nH]c12)C(CC(=O)O)(CC1CCCC1)OCC3` (stereo not drawn) [Example 288, (5-cyano-1-cyclopentylmethyl-8-methyl-1,3,4,9-tetrahydropyrano[3,4-b]indol-1-yl)acetic acid]: the 50% inhibitory concentration (IC50) in data set [1] (Table 1B, read-out: BK IC50) turned out to be 22000 nM; in data set [2] it was 18000 nM.
In the case of `CCCC1(CC(=O)O)OCCc2c1[nH]c1c(C#N)ccc(C(F)(F)F)c21` (stereo not drawn) [Example 276, (8-cyano-1-propyl-5-trifluoromethyl-1,3,4,9-tetrahydropyrano[3,4-b]indol-1-yl)acetic acid], the 50% inhibitory concentration (IC50) was found to be 1300 nM in data set [1] (Table 1B, read-out: BK IC50) and 1700 nM in data set [2].
